The results in this text go back to patent US8008487B2, “Substituted thieno[2,3-D]pyrimidines as fungicides” (priority 2004, dated 2011).

Structures are written as SMILES.

What all share (assay type): in vivo
In one assay the test system is Colletotricum lagenarium. Briefly: Cucumber Anthracnose (COLLLA), whole-plant fungicide test. The following applies: one-day protectant test; for pest or weed control at 200 ppm: foliar.
Another assay concerns Cochliobolus sativus. Put plainly: Spot Blotch of Wheat (COCHSA), whole-plant fungicide test. The following applies: Bipolaris sorokiniana, foliar, 24 h, 200 ppm on foliage, one-day protectant test, read-out: COCHSA percent control of disease. The method, then: The activity of the compounds as effective fungicides was determined by applying the compounds to plants and observing control of fungal disease. The compounds were formulated at 200 ppm in 10 vol. percent acetone plus 90 vol. percent Triton X water (deionized water 99.99 wt. percent+0.01 wt. percent Triton X100), giving a “formulated test compound.” In a few cases, compounds were formulated at 100, 75 or 8.3 ppm rather than 200 ppm in 10 vol. percent acetone plus 90 vol. percent Triton X water (deionized water 99.99 wt. percent+0.01 wt. percent Triton X100), giving a ‘formulated test compound’. The compounds were tested for ability to control plant diseases in a 1-day protectant test (1DP) or a 2-day curative test (2DC). Formulated test compounds were applied to plants using a turn table sprayer fitted with two opposing air atomization nozzles which delivered approximately 1500 L/ha of spray volume. Plants were inoculated with spores of the fungus the next day (1DP), then incubated in an environment conducive to disease development. In a few cases, the compounds were tested for ability to control plant disease in a two-day curative test. Plants were inoculated with spores of the fungus two days prior to compound application, and incubated in an environment conducive to disease development both before and after compound application (2DC). For all types of tests, disease severity was evaluated 4 to 28 days later, depending on the speed of disease development.
Each pot contained 3-8 seedlings. These plants were sprayed until wet with the formulated test compound. On the following day, the leaves were inoculated with an aqueous spore suspension of Cochliobolus sativus and the plants were kept in high humidity for one to two days to permit spores to germinate and infect the leaf. The plants were then transferred to a greenhouse until disease developed on untreated control plants.
The following table presents the activity of typical compounds of the present invention when evaluated in these experiments. The effectiveness of the test compounds in controlling disease was determined by assessing the severity of disease on treated plants, then converting the severity to percent control based on the level of disease on untreated, inoculated plants.
TABLE 4: Activity of compounds as fungicides. Data are the level at which the given disease was controlled when the given compound was applied to the foliage of the plant at 200 ppm. In a few cases (noted in the table) the compound was applied to the plant at 100, 75 or 8.3 ppm. The plant was inoculated with the fungus one day after treatment. In a few cases (noted in the table) the plant was inoculated with the fungus two days before treatment.

The subject of assay [1] is Puccinia recondita tritici. Briefly: Leaf Rust of Wheat (PUCCRT), whole-plant fungicide test. To be noted: one-day protectant test; for pest or weed control at 200 ppm: foliar.
Another assay relates to Magnaporthe grisea. Put plainly: whole plant or invertebrate. To be noted: for pest or weed control at 200 ppm: Pyricularia oryzae, in Oryza sativa, foliar, 24 h, read-out: PYRIOR percent control of disease, 200 ppm on foliage, rice, one-day protectant test.
The test system of assay [2] is Erysiphe graminis f. sp. tritici. Put plainly: Powdery Mildew of Wheat (ERYSGT), whole-plant fungicide test. The following applies: Blumeria graminis, 24 h, one-day protectant test, read-out: ERYSGT percent control of disease; for pest or weed control at 200 ppm: foliar, 200 ppm on foliage; for pest or weed control at 100 ppm: 100 ppm (footnote a).
The next assay relates to Leptosphaeria nodorum. Briefly: Glume Blotch of Wheat (LEPTNO), whole-plant fungicide test. To be noted: 200 ppm on foliage, one-day protectant test; for pest or weed control at 200 ppm: Parastagonospora nodorum, foliar, 24 h, read-out: LEPTNO percent control of disease.
A further assay concerns Phytophthora infestans. Briefly: whole plant or invertebrate. The following applies: for pest or weed control at 200 ppm / pest or weed control at 100 ppm: Phytophthora infestans, in Solanum lycopersicum, 24 h; for pest or weed control at 200 ppm: foliar, read-out: PHYTIN percent control of disease, 200 ppm on foliage, tomato, one-day protectant test; for pest or weed control at 100 ppm: read-out: PHYTIN percent control of disease, 100 ppm (footnote a), tomato, one-day protectant test.

For another assay, the system named is Septoria tritici. Briefly: Speckled Leaf Blotch of Wheat (SEPTTR), whole-plant fungicide test. To be noted: Zymoseptoria tritici, foliar, 24 h, 200 ppm on foliage, one-day protectant test, read-out: SEPTTR percent control of disease.
In a further assay the test system is Erysiphe cichoracaerum. Put plainly: Cucumber Powdery Mildew (ERYSCI), whole-plant fungicide test. The following applies: Erysiphe, foliar, 24 h, 200 ppm on foliage, one-day protectant test, read-out: ERYSCI percent control of disease.
[3] abbreviates: Cucumis sativus, 24 h, 200 ppm on foliage, read-out: COLLLA percent control of disease.
Where [4] appears, read: Puccinia recondita, 24 h, 200 ppm on foliage, read-out: PUCCRT percent control of disease.

`CC(C)c1ccc(C(C)Nc2ncnc3scc(Cl)c23)cc1` (centres unmarked) [Compound 1, (5-Chlorothieno[2,3-d]pyrimidin-4-yl)-[1-(4-isopropylphenyl)ethyl]amine]: the “COLLLA percent control of disease” value with Colletotricum lagenarium (200 ppm on foliage) is “* (* is 0-49 percent control of disease)”. The values for the pest or weed control at 200 ppm (with Cochliobolus sativus; in assay [2]) were 0 to 49% and 80 to 100%, respectively. In [1] (200 ppm on foliage), the “PUCCRT percent control of disease” value was “*** (*** is 80-100 percent control of disease)”. The “PYRIOR percent control of disease” value in the assay with Magnaporthe grisea (200 ppm on foliage, rice, one-day protectant test) is “*** (*** is 80-100 percent control of disease)”. The “LEPTNO percent control of disease” value in the assay with Leptosphaeria nodorum was “*** (*** is 80-100 percent control of disease)”. The “PHYTIN percent control of disease” value with Phytophthora infestans (200 ppm on foliage, tomato, one-day protectant test) is “** (** is 50-79 percent control of disease)”.

With `CC(Nc1ncnc2scc(Cl)c12)c1ccc(OCc2ccccc2)cc1` (centres unmarked) [Compound 2], the pest or weed control at 200 ppm was in the range of 0 to 49% in the assay with Colletotricum lagenarium (setting [3]); 0 to 49% in the assay on Cochliobolus sativus; 80 to 100% in assay [1] (setting [4]); 80 to 100% in the assay on Magnaporthe grisea; 80 to 100% in assay [2]; 80 to 100% in the assay with Septoria tritici. The pest or weed control at 200 ppm in the assay with Leptosphaeria nodorum and in the assay on Phytophthora infestans was 80 to 100% throughout.

With `Clc1csc2ncnc(NCCc3ccc(OCc4ccccc4)cc3)c12` [Compound 3], the pest or weed control at 200 ppm lay in the range of 0 to 49% with Colletotricum lagenarium (setting [3]); 0 to 49% in the assay with Cochliobolus sativus; 80 to 100% in [1] (setting [4]); 80 to 100% with Magnaporthe grisea; 80 to 100% in assay [2]; 80 to 100% with Septoria tritici. For the same molecule, the pest or weed control at 200 ppm in the assay on Leptosphaeria nodorum and in the assay on Phytophthora infestans was 80 to 100% each time.

Consider `CC(Nc1ncnc2scc(Cl)c12)c1ccc(OCc2ccc(OC(F)(F)F)cc2)cc1` (centres unmarked) [Compound 5], for which the pest or weed control at 200 ppm in the assay on Erysiphe cichoracaerum was 80 to 100%; in the assay with Colletotricum lagenarium (setting [3]) it was 0 to 49%; in [1] (setting [4]), 80 to 100%; in the assay with Magnaporthe grisea it was 50 to 79%; in assay [2], 50 to 79%; in the assay on Septoria tritici it was 80 to 100%. The pest or weed control at 200 ppm in the assay on Leptosphaeria nodorum lay in the range of 50 to 79%.

As for `FC(F)(F)Oc1ccc(COc2ccc(CCNc3ncnc4scc(Cl)c34)cc2)cc1` [Compound 6], the pest or weed control at 200 ppm in the assay on Erysiphe cichoracaerum fell in the range of 80 to 100%; in [1] (setting [4]), 80 to 100%; in the assay on Magnaporthe grisea, 50 to 79%; in assay [2] it was 0 to 49%; in the assay with Septoria tritici it was 50 to 79%; in the assay on Leptosphaeria nodorum it was 50 to 79%.

On to `CC(C)c1ccc(CCNc2ncnc3scc(Cl)c23)cc1` [Compound 7], for which the pest or weed control at 200 ppm in the assay with Erysiphe cichoracaerum fell in the range of 80 to 100%; in the assay on Colletotricum lagenarium (setting [3]) it was 0 to 49%; in the assay on Cochliobolus sativus, 50 to 79%; in [1] (setting [4]), 80 to 100%; with Magnaporthe grisea, 80 to 100%; in assay [2], 80 to 100%. Moreover, the pest or weed control at 200 ppm with Septoria tritici and in the assay with Leptosphaeria nodorum was 50 to 79% throughout. In the assay on Phytophthora infestans, the pest or weed control at 100 ppm fell in the range of 80 to 100%.

In the case of `Clc1csc2ncnc(NC3CCc4ccccc43)c12` (centres unmarked) [Compound 8], the pest or weed control at 200 ppm in the assay with Erysiphe cichoracaerum fell in the range of 0 to 49%; with Colletotricum lagenarium (setting [3]), 0 to 49%; in [1] (setting [4]), 50 to 79%; in the assay with Magnaporthe grisea, 50 to 79%; in [2], 0 to 49%; in the assay on Septoria tritici, 0 to 49%. The pest or weed control at 200 ppm with Leptosphaeria nodorum and with Phytophthora infestans was 0 to 49% in each case.

Consider `Clc1csc2ncnc(NC3CCCc4ccccc43)c12` (centres unmarked) [Compound 10], for which the pest or weed control at 200 ppm with Erysiphe cichoracaerum fell in the range of 0 to 49%; with Colletotricum lagenarium (setting [3]) it was 0 to 49%; in assay [1] (setting [4]) it was 0 to 49%; in the assay on Magnaporthe grisea it was 50 to 79%; in assay [2], 0 to 49%; with Septoria tritici it was 0 to 49%. For the same molecule, the pest or weed control at 200 ppm in the assay with Leptosphaeria nodorum and with Phytophthora infestans was 0 to 49% throughout.

For the molecule `COC(=O)c1ccc(CNc2ncnc3scc(Cl)c23)cc1` [Compound 20], the pest or weed control at 200 ppm with Erysiphe cichoracaerum is 0 to 49%; in the assay on Cochliobolus sativus, 0 to 49%; in assay [1] (setting [4]), 0 to 49%; in the assay on Magnaporthe grisea, 0 to 49%; in assay [2], 0 to 49%; with Septoria tritici, 50 to 79%. The pest or weed control at 200 ppm with Leptosphaeria nodorum is 0 to 49%.

As to `CC(Nc1ncnc2scc(Cl)c12)c1cnco1` (centres unmarked) [Compound 21], the pest or weed control at 200 ppm with Erysiphe cichoracaerum lay within 50 to 79%; in the assay with Cochliobolus sativus, 0 to 49%; in assay [1] (setting [4]), 80 to 100%; with Magnaporthe grisea it was 80 to 100%; in [2], 0 to 49%; with Septoria tritici, 50 to 79%. Further, in the assay on Leptosphaeria nodorum, the pest or weed control at 200 ppm is 0 to 49%.

In the case of `CC(Nc1ncnc2scc(Cl)c12)c1nccs1` (centres unmarked) [Compound 22], the pest or weed control at 200 ppm in the assay with Erysiphe cichoracaerum is 80 to 100%; in the assay on Cochliobolus sativus it was 0 to 49%; in [1] (setting [4]), 80 to 100%; in the assay on Magnaporthe grisea, 80 to 100%; in [2], 0 to 49%; with Septoria tritici, 50 to 79%. The pest or weed control at 200 ppm in the assay with Leptosphaeria nodorum fell in the range of 0 to 49%.

In the case of `CC(Nc1ncnc2scc(Cl)c12)c1ccc(Cl)nc1` (centres unmarked) [Compound 28], the pest or weed control at 200 ppm in the assay on Cochliobolus sativus is 0 to 49%; in assay [1] (setting [4]), 80 to 100%; in the assay on Magnaporthe grisea it was 80 to 100%; in assay [2], 0 to 49%; in the assay with Septoria tritici it was 80 to 100%; in the assay on Leptosphaeria nodorum, 80 to 100%.

Take `COc1ccc(C(C)Nc2ncnc3scc(Cl)c23)cc1C` (centres unmarked) [Compound 63]: the pest or weed control at 200 ppm was 80 to 100% in the assay on Erysiphe cichoracaerum; 0 to 49% with Colletotricum lagenarium (setting [3]); 80 to 100% in assay [1] (setting [4]); 80 to 100% in the assay on Magnaporthe grisea; 50 to 79% in the assay on Leptosphaeria nodorum; 50 to 79% in the assay on Phytophthora infestans. In addition, the pest or weed control at 100 ppm in [2] lay in the range of 80 to 100%.

Take `Clc1ccc(CCNc2ncnc3scc(Cl)c23)cn1` [Compound 65]: the pest or weed control at 200 ppm with Erysiphe cichoracaerum was 80 to 100%; in the assay with Colletotricum lagenarium (setting [3]), 0 to 49%; in assay [1] (setting [4]), 80 to 100%; in the assay with Magnaporthe grisea, 0 to 49%; in the assay with Leptosphaeria nodorum, 0 to 49%; in the assay on Phytophthora infestans, 80 to 100%. In [2], the pest or weed control at 100 ppm lay within 0 to 49%.

For `COc1ccc(C(C)Nc2ncnc3scc(Cl)c23)cc1F` (centres unmarked) [Compound 66], the pest or weed control at 200 ppm with Erysiphe cichoracaerum lay in the range of 80 to 100%; in the assay on Colletotricum lagenarium (setting [3]), 0 to 49%; in assay [1] (setting [4]), 80 to 100%; with Magnaporthe grisea, 80 to 100%; with Leptosphaeria nodorum, 0 to 49%; in the assay with Phytophthora infestans, 50 to 79%. In addition, the pest or weed control at 100 ppm in [2] lay in the range of 80 to 100%.

Turning to `CC(Nc1ncnc2scc(F)c12)c1ccc(OCC(F)(F)F)cc1` (centres unmarked) [Compound 78], the pest or weed control at 100 ppm in the assay on Colletotricum lagenarium (Cucumis sativus, 24 h, 100 ppm (footnote a), read-out: COLLLA percent control of disease) is 80 to 100%; in [1] (Puccinia recondita, 24 h, 100 ppm (footnote a), read-out: PUCCRT percent control of disease), 80 to 100%; in assay [2], 80 to 100%; with Phytophthora infestans it was 80 to 100%.
